{"source": "patent US5240925A", "about": "(priority 1991, dated 1993)", "assay_in_all_cases": "whole plant or invertebrate", "assay_type_in_all_cases": "in vivo", "key": {"[1]": {"system": "Erysiphe graminis (f. sp. tritici)", "settings": "Blumeria graminis, 192 h; read-out: percent disease control, WPM"}, "[2]": {"system": "Pseudoperonospora cubensis", "settings": "in Cucumis sativus, 168 h, read-out: percent disease control, CDM"}, "Phytophthora infestans": {"system": "Phytophthora infestans", "settings": "in Solanum lycopersicum, 96 h, read-out: percent disease control, TLB"}, "Piricularia oryzae": {"system": "Piricularia oryzae", "settings": "Pyricularia oryzae, 192 h, read-out: percent disease control, RB"}, "[3]": {"system": "Puccinia recondita (f. sp. tritici Races PKB and PLD)", "settings": "240 h, read-out: percent disease control, WLR"}, "[4]": {"system": "Puccinia graminis (f. sp. tritici Race 15B-2)", "settings": "240 h, read-out: percent disease control, WSR"}}, "data": [{"smiles": "N#CC(CC1CCCO1)(Cn1cncn1)c1ccccc1", "note": "(centres unmarked) [Example 1, 1-[2-Cyano-2-phenyl-3-(tetrahydrofuran-2-yl)propyl]-1,2,4-triazole]", "values": [{"measurement": "pest or weed control at 225 g/ha", "setting": "[1]", "result": 100, "unit": "%"}, {"measurement": "pest or weed control at 225 g/ha", "setting": "[2]", "result": 10, "unit": "%"}, {"measurement": "pest or weed control at 225 g/ha", "setting": "Phytophthora infestans", "result": 5, "unit": "%"}, {"measurement": "pest or weed control at 225 g/ha", "setting": "Piricularia oryzae", "result": 100, "unit": "%"}, {"measurement": "pest or weed control at 225 g/ha", "setting": "[3]", "result": 100, "unit": "%"}]}, {"smiles": "CC1CN(CCC(C#N)(Cn2cncn2)c2ccc(Cl)cc2)CC(C)O1", "note": "(centres unmarked) [Example 4, 1-[2-(4-Chlorophenyl)-2-cyano-4-(2,6-dimethyl-4-morpholinyl)butyl]-1,2,4-triazole]", "values": [{"measurement": "pest or weed control at 300 g/ha", "setting": "[1]", "result": 0, "unit": "%"}, {"measurement": "pest or weed control at 300 g/ha", "setting": "[2]", "result": 0, "unit": "%"}, {"measurement": "pest or weed control at 300 g/ha", "setting": "[4]", "result": 100, "unit": "%"}, {"measurement": "pest or weed control at 300 g/ha", "setting": "Phytophthora infestans", "result": 0, "unit": "%"}, {"measurement": "pest or weed control at 300 g/ha", "setting": "Piricularia oryzae", "result": 0, "unit": "%"}]}, {"smiles": "N#CC(Cc1cccs1)(Cn1cncn1)c1ccc(Cl)cc1", "note": "(centres unmarked) [Example 13, 1-[2-(4-Chlorophenyl)-2-cyano-3-(2-thienyl)propyl]-1,2,4-triazole]", "values": [{"measurement": "pest or weed control at 150 g/ha", "setting": "[1]", "result": 100, "unit": "%"}, {"measurement": "pest or weed control at 300 g/ha", "setting": "[2]", "result": 0, "unit": "%"}, {"measurement": "pest or weed control at 150 g/ha", "setting": "[4]", "result": 100, "unit": "%"}, {"measurement": "pest or weed control at 150 g/ha", "setting": "Phytophthora infestans", "result": 0, "unit": "%"}, {"measurement": "pest or weed control at 300 g/ha", "setting": "Piricularia oryzae", "result": 0, "unit": "%"}, {"measurement": "pest or weed control at 150 g/ha", "setting": "[3]", "result": 0, "unit": "%"}]}, {"smiles": "CN1CCCC(CC(C#N)(Cn2cncn2)c2ccc(Cl)cc2Cl)C1", "note": "(centres unmarked) [Example 11, 1-[2-Cyano-2-(2,4-dichlorophenyl)-3-(1-methylpiperidin-3-yl)propyl]-1,2,4-triazole]", "values": [{"measurement": "pest or weed control at 300 g/ha", "setting": "[1]", "result": 95, "unit": "%"}, {"measurement": "pest or weed control at 300 g/ha", "setting": "[2]", "result": 50, "unit": "%"}, {"measurement": "pest or weed control at 300 g/ha", "setting": "Phytophthora infestans", "result": 0, "unit": "%"}, {"measurement": "pest or weed control at 300 g/ha", "setting": "Piricularia oryzae", "result": 0, "unit": "%"}, {"measurement": "pest or weed control at 300 g/ha", "setting": "[3]", "result": 25, "unit": "%"}]}, {"smiles": "N#CC(Cc1cccnc1)(Cn1cncn1)c1ccc(Cl)cc1", "note": "(centres unmarked) [Example 7, 1-[2-(4-Chlorophenyl)-2-cyano-3-(3-pyridyl)propyl]-1,2,4-triazole]", "values": [{"measurement": "pest or weed control at 150 g/ha", "setting": "[1]", "result": 85, "unit": "%"}, {"measurement": "pest or weed control at 150 g/ha", "setting": "Phytophthora infestans", "result": 0, "unit": "%"}, {"measurement": "pest or weed control at 150 g/ha", "setting": "Piricularia oryzae", "result": 0, "unit": "%"}, {"measurement": "pest or weed control at 150 g/ha", "setting": "[3]", "result": 0, "unit": "%"}]}, {"smiles": "CC1CN(CCCCCCCCCCCC(C#N)(Cn2cncn2)c2ccc(Cl)cc2)CC(C)O1", "note": "(centres unmarked) [Example 6, 1-[2-(4-Chlorophenyl)-2-cyano-13-(2,6-dimethyl-4-morpholinyl)tridecyl]-1,2,4-triazole]", "values": [{"measurement": "pest or weed control at 300 g/ha", "setting": "[1]", "result": 0, "unit": "%"}, {"measurement": "pest or weed control at 300 g/ha", "setting": "[2]", "result": 0, "unit": "%"}, {"measurement": "pest or weed control at 300 g/ha", "setting": "[4]", "result": 80, "unit": "%"}, {"measurement": "pest or weed control at 300 g/ha", "setting": "Phytophthora infestans", "result": 0, "unit": "%"}, {"measurement": "pest or weed control at 300 g/ha", "setting": "Piricularia oryzae", "result": 0, "unit": "%"}]}, {"smiles": "COc1ccccc1C(C#N)(Cc1ccccn1)Cn1cncn1", "note": "(centres unmarked) [Example 9, 1-[2-Cyano-2-(2-methoxyphenyl)-3-(2-pyridyl)propyl]-1,2,4-triazole]", "values": [{"measurement": "pest or weed control at 150 g/ha", "setting": "[1]", "result": 0, "unit": "%"}, {"measurement": "pest or weed control at 150 g/ha", "setting": "Phytophthora infestans", "result": 100, "unit": "%"}, {"measurement": "pest or weed control at 150 g/ha", "setting": "Piricularia oryzae", "result": 0, "unit": "%"}, {"measurement": "pest or weed control at 150 g/ha", "setting": "[3]", "result": 0, "unit": "%"}]}, {"smiles": "COc1ccccc1C(C#N)(CC1CCCCO1)Cn1cncn1", "note": "(centres unmarked) [Example 14, 1-[2-Cyano-2-(2-methoxyphenyl)-3-(tetrahydropyran-2-yl)propyl]-1,2,4-triazole]", "values": [{"measurement": "pest or weed control at 300 g/ha", "setting": "[1]", "result": 99, "unit": "%"}, {"measurement": "pest or weed control at 300 g/ha", "setting": "[2]", "result": 0, "unit": "%"}, {"measurement": "pest or weed control at 300 g/ha", "setting": "Phytophthora infestans", "result": 0, "unit": "%"}, {"measurement": "pest or weed control at 300 g/ha", "setting": "Piricularia oryzae", "result": 0, "unit": "%"}, {"measurement": "pest or weed control at 300 g/ha", "setting": "[3]", "result": 0, "unit": "%"}]}, {"smiles": "N#CC(Cc1ccco1)(Cn1cncn1)c1ccc(Cl)cc1", "note": "(centres unmarked) [Example 12, 1-[2-(4-Chlorophenyl)-2-cyano-3-(2-furyl)propyl]-1,2,4-triazole]", "values": [{"measurement": "pest or weed control at 150 g/ha", "setting": "[1]", "result": 100, "unit": "%"}, {"measurement": "pest or weed control at 150 g/ha", "setting": "[4]", "result": 50, "unit": "%"}, {"measurement": "pest or weed control at 150 g/ha", "setting": "Phytophthora infestans", "result": 80, "unit": "%"}, {"measurement": "pest or weed control at 150 g/ha", "setting": "[3]", "result": 0, "unit": "%"}]}, {"smiles": "N#CC(CCN1CCOCC1)(Cn1cncn1)c1ccc(Cl)cc1", "note": "(centres unmarked) [Example 2, 1-[2-(4-Chlorophenyl)-2-cyano-4-(4-morpholinyl)butyl]-1,2,4-triazole]", "values": [{"measurement": "pest or weed control at 300 g/ha", "setting": "[1]", "result": 50, "unit": "%"}, {"measurement": "pest or weed control at 300 g/ha", "setting": "[2]", "result": 0, "unit": "%"}, {"measurement": "pest or weed control at 300 g/ha", "setting": "[4]", "result": 0, "unit": "%"}, {"measurement": "pest or weed control at 300 g/ha", "setting": "Phytophthora infestans", "result": 0, "unit": "%"}, {"measurement": "pest or weed control at 300 g/ha", "setting": "Piricularia oryzae", "result": 0, "unit": "%"}]}, {"smiles": "N#CC(CCc1cccs1)(Cn1cncn1)c1ccc(Cl)cc1", "note": "(centres unmarked) [Example 8, 1-[2-(4-Chlorophenyl)-2-cyano-4-(2-thienyl)butyl]-1,2,4-triazole]", "values": [{"measurement": "pest or weed control at 150 g/ha", "setting": "[1]", "result": 95, "unit": "%"}, {"measurement": "pest or weed control at 150 g/ha", "setting": "[2]", "result": 100, "unit": "%"}, {"measurement": "pest or weed control at 150 g/ha", "setting": "[4]", "result": 95, "unit": "%"}, {"measurement": "pest or weed control at 150 g/ha", "setting": "Phytophthora infestans", "result": 80, "unit": "%"}, {"measurement": "pest or weed control at 150 g/ha", "setting": "Piricularia oryzae", "result": 0, "unit": "%"}, {"measurement": "pest or weed control at 150 g/ha", "setting": "[3]", "result": 95, "unit": "%"}]}, {"smiles": "N#CC(CCCN1CCCCC1)(Cn1cncn1)c1ccc(Cl)cc1Cl", "note": "(centres unmarked) [Example 10, 1-[2-Cyano-2-(2,4-dichlorophenyl)-5-(1-piperidinyl)pentyl]-1,2,4-triazole]", "values": [{"measurement": "pest or weed control at 300 g/ha", "setting": "[1]", "result": 75, "unit": "%"}, {"measurement": "pest or weed control at 300 g/ha", "setting": "Piricularia oryzae", "result": 50, "unit": "%"}, {"measurement": "pest or weed control at 300 g/ha", "setting": "[3]", "result": 25, "unit": "%"}]}, {"smiles": "CC1CN(CCCCC(C#N)(Cn2cncn2)c2ccc(Cl)cc2)CC(C)O1", "note": "(centres unmarked) [Example 5, 1-[2-(4-Chlorophenyl)-2-cyano-6-(2,6-dimethyl-4-morpholinyl)hexyl]-1,2,4-triazole]", "values": [{"measurement": "pest or weed control at 300 g/ha", "setting": "[1]", "result": 0, "unit": "%"}, {"measurement": "pest or weed control at 300 g/ha", "setting": "[2]", "result": 0, "unit": "%"}, {"measurement": "pest or weed control at 300 g/ha", "setting": "[4]", "result": 80, "unit": "%"}, {"measurement": "pest or weed control at 300 g/ha", "setting": "Phytophthora infestans", "result": 0, "unit": "%"}, {"measurement": "pest or weed control at 300 g/ha", "setting": "Piricularia oryzae", "result": 0, "unit": "%"}]}, {"smiles": "CC1CN(CCCC(C#N)(Cn2cncn2)c2ccc(Cl)cc2)CC(C)O1", "note": "(centres unmarked) [Example 3, 1-[2-(4-Chlorophenyl)-2-cyano-5-(2,6-dimethyl-4-morpholinyl)pentyl]-1,2,4-triazole]", "values": [{"measurement": "pest or weed control at 300 g/ha", "setting": "[1]", "result": 0, "unit": "%"}, {"measurement": "pest or weed control at 300 g/ha", "setting": "[2]", "result": 0, "unit": "%"}, {"measurement": "pest or weed control at 300 g/ha", "setting": "[4]", "result": 50, "unit": "%"}, {"measurement": "pest or weed control at 300 g/ha", "setting": "Phytophthora infestans", "result": 0, "unit": "%"}, {"measurement": "pest or weed control at 300 g/ha", "setting": "Piricularia oryzae", "result": 0, "unit": "%"}]}, {"smiles": "N#CC(CCc1ccccn1)(Cn1cncn1)c1ccccc1", "note": "(centres unmarked) [Example 15, 1-[2-Cyano-2-phenyl-4-(2-pyridyl)butyl]-1,2,4-triazole]", "values": [{"measurement": "pest or weed control at 300 g/ha", "setting": "[1]", "result": 85, "unit": "%"}, {"measurement": "pest or weed control at 300 g/ha", "setting": "[2]", "result": 0, "unit": "%"}, {"measurement": "pest or weed control at 300 g/ha", "setting": "Phytophthora infestans", "result": 85, "unit": "%"}, {"measurement": "pest or weed control at 300 g/ha", "setting": "[3]", "result": 0, "unit": "%"}]}]}
